Values of other authors as cited in patent publication US20100203146A1, “INTERMITTENT DOSING STRATEGY FOR TREATING RHEUMATOID ARTHRITIS” (Callisto Pharmaceuticals, Inc., priority 2009, published 2010).

Assays:
RA patients = conditions: at the administered doses
arthritis patients = conditions: after a single dosage of 90 mg
patients with RA = conditions: often observed
[1] = after 14 or 28 days of daily oral dosing

## CCCC1(CCC)CCC2(CCN(CCCN(CC)CC)C2)CC1 [Atiprimod, 2-(3-Diethylaminopropyl)-8,8-dipropyl-2-azaspiro[4,5]decane]
[1]
  area under the concentration-time curve (AUC): lower than expected
  maximum concentration (Cmax): lower than expected
In man
  half-life: ~60 days
RA patients
  dose-limiting toxicity: no observed dose-limiting toxicity
RA patients; on drug for as long as one year
  tolerability: well-tolerated
Arthritis patients
  patient-reported relief: feeling better

## CN(Cc1cnc2nc(N)nc(N)c2n1)c1ccc(C(=O)N[C@@H](CCC(=O)O)C(=O)O)cc1 [Methotrexate]
Patients with RA
  response (improvement): less than 50%
